Tests used:
human TLR9 = target: T1, human TLR9 (Homo sapiens, UniProt Q9NR96); experiment: TLR9 inhibition reporter assay (HEK-Blue cells, SEAP reporter); format: cell-based; settings: HEK-Blue cells overexpressing human TLR9, stimulated with ODN2006 5 nM, 22 hour incubation
T1 construct: host or cells: HEK-Blue cells
T1 sequence (Q9NR96 26-1032): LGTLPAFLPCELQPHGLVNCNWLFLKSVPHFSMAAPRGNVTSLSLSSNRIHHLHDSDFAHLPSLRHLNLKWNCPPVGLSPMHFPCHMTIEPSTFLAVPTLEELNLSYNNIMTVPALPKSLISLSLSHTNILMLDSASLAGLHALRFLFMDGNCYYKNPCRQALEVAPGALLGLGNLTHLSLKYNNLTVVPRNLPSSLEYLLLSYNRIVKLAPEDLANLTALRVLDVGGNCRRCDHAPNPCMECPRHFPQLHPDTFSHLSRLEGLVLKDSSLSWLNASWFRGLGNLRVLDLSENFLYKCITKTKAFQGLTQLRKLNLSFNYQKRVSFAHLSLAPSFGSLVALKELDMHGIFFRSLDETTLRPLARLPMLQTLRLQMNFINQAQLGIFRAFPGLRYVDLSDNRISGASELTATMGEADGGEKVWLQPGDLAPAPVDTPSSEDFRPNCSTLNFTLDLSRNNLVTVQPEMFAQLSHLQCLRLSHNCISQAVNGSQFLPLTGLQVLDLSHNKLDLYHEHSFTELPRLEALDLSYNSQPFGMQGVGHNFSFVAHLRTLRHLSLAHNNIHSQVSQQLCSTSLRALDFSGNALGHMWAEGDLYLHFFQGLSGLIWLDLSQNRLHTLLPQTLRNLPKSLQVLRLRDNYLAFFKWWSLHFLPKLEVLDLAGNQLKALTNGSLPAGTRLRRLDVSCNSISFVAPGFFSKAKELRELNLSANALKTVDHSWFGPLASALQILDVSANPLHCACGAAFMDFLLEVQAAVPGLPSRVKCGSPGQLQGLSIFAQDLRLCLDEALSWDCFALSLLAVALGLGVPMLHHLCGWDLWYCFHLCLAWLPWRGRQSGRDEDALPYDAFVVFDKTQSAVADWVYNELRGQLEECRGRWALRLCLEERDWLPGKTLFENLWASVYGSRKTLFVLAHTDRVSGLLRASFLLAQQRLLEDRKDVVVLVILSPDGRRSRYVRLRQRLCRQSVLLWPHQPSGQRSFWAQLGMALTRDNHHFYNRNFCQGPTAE
Method: (§1) TLR7/8/9 Inhibition Reporter Assays
HEK-Blue™-cells (Invivogen) overexpressing human TLR7, TLR8 or TLR9 receptors were used for screening inhibitors of these receptors using an inducible SEAP (secreted embryonic alkaline phosphatase) reporter gene under the control of the IFN-β minimal promoter fused to five NF-κB and AP-1-binding sites. Briefly, cells are seeded into Greiner 384 well plates (15000 cells per well for TLR7, 20,000 for TLR8 and 25,000 for TLR9) and then treated with test compounds in DMSO to yield a final dose response concentration range of 0.05 nM-50 μM. […] After a 22 hour incubation at 37° C., 5% CO2, SEAP levels are determined with the addition of HEK-Blue™ Detection reagent (Invivogen), a cell culture medium that allows for detection of SEAP, according to manufacturer's specifications. The percent inhibition is determined as the % reduction in the HEK-Blue signal present in wells treated with agonist plus DMSO alone compared to wells treated with a known inhibitor.

human TLR7 = target: T2, human TLR7 (Homo sapiens, UniProt Q9NYK1); experiment: TLR7 inhibition reporter assay (HEK-Blue cells, SEAP reporter); format: cell-based; settings: HEK-Blue cells overexpressing human TLR7, stimulated with gardiquimod 7.5 μM, 22 hour incubation
T2 construct: host or cells: HEK-Blue cells
T2 sequence (Q9NYK1 27-1049): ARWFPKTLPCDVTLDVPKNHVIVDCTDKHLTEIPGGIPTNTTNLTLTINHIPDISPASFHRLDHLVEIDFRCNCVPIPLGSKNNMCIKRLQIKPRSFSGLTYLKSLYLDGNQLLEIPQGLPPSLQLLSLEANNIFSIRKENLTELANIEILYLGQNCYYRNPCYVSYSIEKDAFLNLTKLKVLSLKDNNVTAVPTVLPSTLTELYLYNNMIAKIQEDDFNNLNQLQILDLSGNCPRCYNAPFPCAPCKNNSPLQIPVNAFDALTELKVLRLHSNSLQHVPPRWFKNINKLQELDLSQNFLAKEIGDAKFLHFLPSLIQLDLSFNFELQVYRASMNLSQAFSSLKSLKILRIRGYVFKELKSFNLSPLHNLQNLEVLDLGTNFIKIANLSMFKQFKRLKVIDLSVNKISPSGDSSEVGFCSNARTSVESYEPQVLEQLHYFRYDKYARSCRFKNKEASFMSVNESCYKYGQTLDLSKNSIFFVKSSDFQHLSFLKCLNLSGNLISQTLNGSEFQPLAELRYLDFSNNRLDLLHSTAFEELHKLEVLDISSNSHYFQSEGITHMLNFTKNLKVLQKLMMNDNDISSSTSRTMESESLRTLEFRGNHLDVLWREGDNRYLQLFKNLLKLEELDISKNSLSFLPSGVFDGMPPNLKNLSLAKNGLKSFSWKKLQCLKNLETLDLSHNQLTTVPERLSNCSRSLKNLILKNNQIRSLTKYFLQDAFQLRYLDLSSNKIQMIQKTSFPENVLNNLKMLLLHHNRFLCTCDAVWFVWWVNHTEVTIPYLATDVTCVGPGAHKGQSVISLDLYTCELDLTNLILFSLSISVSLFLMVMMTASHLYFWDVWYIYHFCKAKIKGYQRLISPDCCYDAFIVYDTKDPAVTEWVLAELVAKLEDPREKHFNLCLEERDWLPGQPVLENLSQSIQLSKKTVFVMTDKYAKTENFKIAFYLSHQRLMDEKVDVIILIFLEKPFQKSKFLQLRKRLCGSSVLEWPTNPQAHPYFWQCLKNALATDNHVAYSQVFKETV
Method: as §1
HEK-Blue™-cells (Invivogen) overexpressing human TLR7, TLR8 or TLR9 receptors were used for screening inhibitors of these receptors using an inducible SEAP (secreted embryonic alkaline phosphatase) reporter gene under the control of the IFN-β minimal promoter fused to five NF-κB and AP-1-binding sites. Briefly, cells are seeded into Greiner 384 well plates (15000 cells per well for TLR7, 20,000 for TLR8 and 25,000 for TLR9) and then treated with test compounds in DMSO to yield a final dose response concentration range of 0.05 nM-50 μM. After a 30 minute compound pre-treatment at room temperature, the cells are then stimulated with a TLR7 ligand (gardiquimod at a final concentration of 7.5 μM), TLR8 ligand (R848 at a final concentration of 15.9 μM) or TLR9 ligand (ODN2006 at a final concentration of 5 nM) to activate NF-κB and AP-1 which induce the production of SEAP. After a 22 hour incubation at 37° C., 5% CO2, SEAP levels are determined with the addition of HEK-Blue™ Detection reagent (Invivogen), a cell culture medium that allows for detection of SEAP, according to manufacturer's specifications. The percent inhibition is determined as the % reduction in the HEK-Blue signal present in wells treated with agonist plus DMSO alone compared to wells treated with a known inhibitor.

Row | SMILES | IC50 (human TLR9) | IC50 (human TLR7)
1 | Cc1nc(-c2ccc(CN3CCN(CCC(C)(C)O)CC3)cc2)cc2c1cc(-c1ccc(S(C)(=O)=O)cc1)n2C(F)F [Example 117, 4-[4-[[4-[1-(difluoromethyl)-4-methyl-2-(4-methylsulfonylphenyl)pyrrolo[3,2-c]pyridin-6-yl]phenyl]methyl]piperazin-1-yl]-2-methyl-butan-2-ol] | 557 nM | 7800 nM
2 | Cc1nc(-c2ccc(CN3C[C@H]4CC[C@@H]3CN4CC(C)(C)CO)cc2)cc2c1cc(-c1ccc(S(C)(=O)=O)cc1)n2C [Example 45, 3-((1R,4R)-5-(4-(1,4-Dimethyl-2-(4-(methylsulfonyl)phenyl)-1H-pyrrolo[3,2-c]pyridin-6-yl)benzyl)-2,5-diazabicyclo[2.2.2]octan-2-yl)-2,2-dimethylpropan-1-ol] | 68 nM | 750 nM
3 | Cc1nc(-c2ccc(N3CCN(CC(C)C)CC3)c(F)c2)cc2c1cc(-c1ccc(S(C)(=O)=O)cc1)n2C [Example 72, 6-(3-fluoro-4-(4-isobutylpiperazin-1-yl)phenyl)-1,4-dimethyl-2-(4-(methylsulfonyl)phenyl)-1H-pyrrolo[3,2-c]pyridine] | 411 nM | –
4 | COc1nc(-c2ccc(CN3CCN(C(C)C)CC3)cc2)cc2c1cc(-c1ccc(S(C)(=O)=O)cc1)n2C [Example 126, 6-(4-((4-isopropylpiperazin-1-yl)methyl)phenyl)-4-methoxy-1-methyl-2-(4-(methylsulfonyl)phenyl)-1H-pyrrolo[3,2-c]pyridine] | 1260 nM | –
5 | Cc1nc(-c2ccc(N3CCN(C4COC4)CC3)cc2)cc2c1cc(-c1ccc(S(=O)(=O)N(C)C)cc1)n2C [Example 50, 4-(1,4-dimethyl-6-(4-(4-(oxetan-3-yl)piperazin-1-yl)phenyl)-1H-pyrrolo[3,2-c]pyridin-2-yl)-N,N-dimethylbenzenesulfonamide] | 2410 nM | –
6 | Cc1nc(-c2ccc(N3CCN(C4CCOCC4)CC3)c(F)c2)cc2c1cc(-c1ccc(S(C)(=O)=O)cc1)n2C [Example 71, 6-(3-fluoro-4-(4-(tetrahydro-2H-pyran-4-yl)piperazin-1-yl)phenyl)-1,4-dimethyl-2-(4-(methylsulfonyl)phenyl)-1H-pyrrolo[3,2-c]pyridine] | 3 nM | –
7 | Cc1nc(-c2ccc(N3CCN(C4CC4)CC3)cc2)cc2c1cc(-c1ccc(S(C)(=O)=O)cc1)n2C [Example 62, 6-(4-(4-cyclopropylpiperazin-1-yl)phenyl)-1,4-dimethyl-2-(4-(methylsulfonyl)phenyl)-1H-pyrrolo[3,2-c]pyridine] | 105 nM | –
8 | Cc1nc(-c2ccc(N3CCN4CCCC4C3)c(F)c2)cc2c1cc(-c1ccc(S(C)(=O)=O)cc1)n2C (stereo not shown) [Example 65, 6-(3-fluoro-4-(hexahydropyrrolo[1,2-a]pyrazin-2(1H)-yl)phenyl)-1,4-dimethyl-2-(4-(methylsulfonyl)phenyl)-1H-pyrrolo[3,2-c]pyridine] | 136 nM | –
9 | Cc1nc(-c2ccc(N3CCOCC3)cc2)cc2c1cc(-c1ccc(S(C)(=O)=O)cc1)n2C [Example 86, 4-(4-(1,4-dimethyl-2-(4-(methylsulfonyl)phenyl)-1H-pyrrolo[3,2-c]pyridin-6-yl)phenyl)morpholine] | 1070 nM | –
10 | Cc1nc(-c2ccc(N3CCN(CC(C)C)CC3)cc2)cc2c1cc(-c1ccc(S(=O)(=O)C3CC3)cc1)n2C [Example 46, 2-(4-(cyclopropylsulfonyl)phenyl)-6-(4-(4-isobutylpiperazin-1-yl)phenyl)-1,4-dimethyl-1H-pyrrolo[3,2-c]pyridine] | 213 nM | –
11 | COc1nc(-c2ccc(N3CCN(C(C)C)CC3)cc2)cc2c1cc(-c1ccc(S(C)(=O)=O)cc1)n2C [Example 119, 6-[4-(4-isopropylpiperazin-1-yl)phenyl]-4-methoxy-1-methyl-2-(4-methylsulfonylphenyl) pyrrolo[3,2-c]pyridine] | 543 nM | –
